Measured values taken from PMC3034978 (Biopharmaceutics & drug disposition, 2010).
Where two headings read alike, the source gives them in different places. Marks after values point to notes of the source that are not given here.

Experiments:
BME-UV monolayer = experiment: Mannitol flux across BME-UV monolayer from Ap-to-BL side; assay type: in vitro ADME, bovine; conditions: for Effect on flux of mannitol across BME-UV monolayer (monolayer integrity): 200 ng/ml TNF-α
P-glycoprotein [1] = target: P-glycoprotein (Bos taurus, UniProt A0A3Q1MB23); experiment: Ap-to-BL flux of digoxin; assay type: in vitro ADME, bovine; conditions: TNF-α 200 ng/ml, 24 hours exposure; 0.05 μM [3H]-digoxin
P-glycoprotein [2] = experiment: Western blot of P-glycoprotein immunoreactive bands in BME-UV cells; assay type: cell-based, bovine; conditions: TNF-α 200 ng/ml
bABCB1 mRNA = bABCB1 mRNA expression by quantitative real-time RT-PCR in BME-UV cells; assay type: cell-based, bovine; conditions: 200 ng/ml TNF-α, 24 hours exposure, vs unexposed cells
[3] = tested on: mammary epithelial monolayer (BME-UV); conditions: exposure to TNF-α for 8 hours; cited from earlier work

P-glycoprotein (Bos taurus, UniProt A0A3Q1MB23), sequence (A0A3Q1MB23 1-1267): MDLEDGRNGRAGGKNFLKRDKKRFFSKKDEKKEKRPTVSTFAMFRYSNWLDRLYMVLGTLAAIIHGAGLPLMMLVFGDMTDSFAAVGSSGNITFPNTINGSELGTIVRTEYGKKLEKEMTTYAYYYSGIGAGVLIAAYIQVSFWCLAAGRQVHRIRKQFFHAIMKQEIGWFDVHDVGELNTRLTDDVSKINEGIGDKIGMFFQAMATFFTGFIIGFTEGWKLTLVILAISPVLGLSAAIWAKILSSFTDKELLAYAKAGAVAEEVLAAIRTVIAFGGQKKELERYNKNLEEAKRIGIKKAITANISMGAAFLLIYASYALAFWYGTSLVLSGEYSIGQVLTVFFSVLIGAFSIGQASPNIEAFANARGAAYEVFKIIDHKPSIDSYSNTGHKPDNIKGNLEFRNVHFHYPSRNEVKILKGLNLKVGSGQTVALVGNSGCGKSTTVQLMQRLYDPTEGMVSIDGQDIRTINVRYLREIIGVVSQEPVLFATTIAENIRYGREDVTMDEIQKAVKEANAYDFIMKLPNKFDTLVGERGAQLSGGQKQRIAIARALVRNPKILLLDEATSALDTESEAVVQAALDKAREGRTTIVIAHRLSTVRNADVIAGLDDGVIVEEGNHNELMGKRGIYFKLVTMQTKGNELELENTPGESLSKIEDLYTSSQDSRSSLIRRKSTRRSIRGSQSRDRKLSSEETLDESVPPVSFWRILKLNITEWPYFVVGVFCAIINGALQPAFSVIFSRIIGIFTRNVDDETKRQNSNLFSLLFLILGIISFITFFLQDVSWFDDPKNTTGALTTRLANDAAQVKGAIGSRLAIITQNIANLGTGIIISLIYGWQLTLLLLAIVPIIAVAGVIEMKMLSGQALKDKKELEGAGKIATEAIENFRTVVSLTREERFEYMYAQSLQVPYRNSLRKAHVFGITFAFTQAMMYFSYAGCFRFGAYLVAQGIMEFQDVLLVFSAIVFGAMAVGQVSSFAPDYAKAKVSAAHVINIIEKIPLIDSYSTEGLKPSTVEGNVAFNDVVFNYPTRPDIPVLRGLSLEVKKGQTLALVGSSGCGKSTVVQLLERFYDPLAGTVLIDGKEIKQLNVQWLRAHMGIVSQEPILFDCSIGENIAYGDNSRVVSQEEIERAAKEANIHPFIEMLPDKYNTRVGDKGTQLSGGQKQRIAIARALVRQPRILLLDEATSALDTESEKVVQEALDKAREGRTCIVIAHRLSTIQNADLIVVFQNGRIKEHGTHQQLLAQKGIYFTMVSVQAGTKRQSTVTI

With `C[C@H]1O[C@@H](O[C@H]2[C@@H](O)C[C@H](O[C@H]3[C@@H](O)C[C@H](O[C@H]4CC[C@@]5(C)[C@H](CC[C@@H]6[C@@H]5C[C@@H](O)[C@]5(C)[C@@H](C7=CC(=O)OC7)CC[C@]65O)C4)O[C@@H]3C)O[C@@H]2C)C[C@H](O)[C@@H]1O` [digoxin] the “Intracellular content of digoxin” value (BME-UV cells; BME-UV cells exposed to TNF-α for 24 hours) was 4.6 ± 1.1 × 10^−4 nmol, the “Intracellular content of digoxin” value (BME-UV cells; BME-UV cells exposed to TNF-α for 72 hrs) was 3.0 ± 0.2 × 10^−4 nmol and the “Intracellular content of digoxin” value (BME-UV cells; unexposed BME-UV cells) was 6.3 ± 2.6 × 10^−4 nmol.
In the case of `OC[C@@H](O)[C@@H](O)[C@H](O)[C@H](O)CO` [mannitol], the “Mannitol flux, Ap-to-BL” value (BME-UV monolayer; BME-UV exposed to TNF-α 200 ng/ml for 24 hr (TNF-24H)) is reported as 15.5 × 10^−3 ^b nmol/cm^2/hr, the “Mannitol flux, Ap-to-BL” value (BME-UV monolayer; BME-UV exposed to TNF-α 200 ng/ml for 72 hr (TNF-72H)) is reported as 14.1 × 10^−3 ^b nmol/cm^2/hr and the “Mannitol flux, Ap-to-BL” value (BME-UV monolayer; BME-UV exposed to TNF-α 200 ng/ml for 120 hr (TNF-120H)) is reported as 9.6 × 10^−3 ^a nmol/cm^2/hr. The “Flux value of mannitol” value (BME-UV monolayer; TNF-α exposed monolayers for 24 hours) was 15.5 ± 0.8 × 10^−6 μmol/cm^2 per hour, the “Mannitol flux, Ap-to-BL” value (BME-UV monolayer; Untreated BME-UV monolayer, 2 μM [14C]-mannitol) was 6.5 × 10^−3 ^a nmol/cm^2/hr and the “Flux value of mannitol” value (BME-UV monolayer; unexposed monolayers) was 6.5 ± 0.7 × 10^−6 μmol/cm^2 per hour.
With TNF-α the “Change in Ap-to-BL flux of digoxin” value (P-glycoprotein [1]) was “significantly decreased”, the “Change in P-glycoprotein immunoreactive level” value (P-glycoprotein [2]; 24 hours exposure) was “significant increase” and the “Change in P-glycoprotein immunoreactive level” value (P-glycoprotein [2]; 72 hours exposure) was “maximum observed effect”. For the same molecule, the “Change in P-glycoprotein immunoreactive level” value (P-glycoprotein [2]; 120 hours exposure, lower than at 72 hours) was “increased significantly”, the “Effect on flux of mannitol across BME-UV monolayer (monolayer integrity)” value (BME-UV monolayer; 24 and 72 hours exposure) was “increased significantly” and the “Effect on flux of mannitol across BME-UV monolayer (monolayer integrity)” value (BME-UV monolayer; 120 hours exposure) was “indistinguishable from untreated”. The “Change in bABCB1 mRNA expression” value (bABCB1 mRNA) was “significant increase” and the “Decrease in Rte value” [3] was 30%.
